Test results taken from US9061981B2, “Diphenyl substituted cyclohexane derivatives, useful as modulators of the estrogen receptors beta” (Acadia Pharmaceuticals Inc., priority 2011, dated 2015).

How the values were obtained:
[1] = tested on: bilateral 6-hydroxydopamine (6OHDA) lesion of the substantia nigra; assay: Bilateral 6OHDA lesion of the substantia nigra, behavioral assessment; format: in vivo, Male rats; conditions: 6OHDA rats, once daily 7 days sc; 10 mg/kg (estradiol 100 μg/kg)
Description: (§1) Male rats received baseline assessment of weight, motor function (spontaneous locomotor behavior, rotorod performance) and sensorimotor gating (prepulse inhibition). Subjects were assigned to treatment conditions to equalize performance on all these measures. Subjects were then treated once daily for 7 days with either sesame oil vehicle, estradiol (100 μg/kg sc), Comparative substance 131 (10 mg/kg sc), Compound 8 (10 mg/kg sc), Comparative substance 623 (10 mg/kg sc) or Comparative substance 957 (10 mg/kg sc). On the second day of treatment, subjects received bilateral sham or 6OHDA lesions (8 μg in 4 μl) of the substantia nigra (A/P−5.0 mm, M/L±1.6 mm, D/V−8.2 mm) following the atlas of Paxinos and Watson (Paxinos, G., Watson, C., The Rat Brain in Stereotaxic Coordinates, Fourth Edition, New York: Academic Press, Spiral Bound, 1998). Behavioral assessments of motor function (spontaneous locomotion, rotorod and traversing a challenging beam), cognition (novel object recognition) and sensorimotor gating (prepulse inhibition) began after the final day of treatment. Following behavioral assessment, SN and striatal tissue were collected in order to determine the intactness of the nigrostriatal dopamine system.

[2] = target: T1, ERβ (Homo sapiens, UniProt Q92731); assay: R-SAT functional assay, ERβ; format: cell-based; set-up: expressed in transfected cells; host or cells: transient transfection
T1 sequence (Q92731 whole entry, species assumed): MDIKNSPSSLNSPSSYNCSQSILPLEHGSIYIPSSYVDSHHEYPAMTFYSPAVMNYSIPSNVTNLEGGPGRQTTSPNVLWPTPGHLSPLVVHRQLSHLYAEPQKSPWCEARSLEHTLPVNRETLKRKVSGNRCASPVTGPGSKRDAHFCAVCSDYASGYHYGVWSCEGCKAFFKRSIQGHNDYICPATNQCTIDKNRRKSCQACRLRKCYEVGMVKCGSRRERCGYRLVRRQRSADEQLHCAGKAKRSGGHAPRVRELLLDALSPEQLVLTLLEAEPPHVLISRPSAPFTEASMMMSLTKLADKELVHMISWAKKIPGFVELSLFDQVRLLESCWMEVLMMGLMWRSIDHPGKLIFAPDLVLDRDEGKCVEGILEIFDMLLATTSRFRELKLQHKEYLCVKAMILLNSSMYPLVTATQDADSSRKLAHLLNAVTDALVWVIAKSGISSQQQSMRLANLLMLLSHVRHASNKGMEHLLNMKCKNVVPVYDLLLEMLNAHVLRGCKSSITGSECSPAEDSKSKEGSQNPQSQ

[3] = target: T1, ERβ; assay: Luciferase reporter gene assay (3*ERE) in HEK293 cells, ERβ; format: cell-based; set-up: expressed in transfected cells; host or cells: HEK293 cells, transient transfection
Description: (§2) HEK293 cells were grown to 70% confluency in DMEM containing 10% calf serum (Hyclone) prior to transfection. On the day of transfection (day 1), expression vectors for ERα or ERβ were cotransfected along a construct containing a synthetic 3*ERE upstream of the luciferase gene (Panomics), using Polyfect (Qiagen) per manufacturer's recommendations (ERE being estrogen response element). Sixteen hours post-transfection, cells were incubated in serum free DMEM. […] Cells extracts were then obtained by lyzing and the Luciferase activity measured, all of these steps performed using a commercially available kit (Promega).

[4] = Microsomal bioavailability (Table 2); format: in vitro ADME; conditions: read-out: Microsomal bioavailability F (%)
[5] = target: T2, ERα (Homo sapiens, UniProt P03372); assay: R-SAT functional assay, ERα; format: cell-based; set-up: expressed in transfected cells; host or cells: NIH-3T3 fibroblasts, transient transfection; conditions: NIH-3T3 cells
T2 sequence (P03372 1-595): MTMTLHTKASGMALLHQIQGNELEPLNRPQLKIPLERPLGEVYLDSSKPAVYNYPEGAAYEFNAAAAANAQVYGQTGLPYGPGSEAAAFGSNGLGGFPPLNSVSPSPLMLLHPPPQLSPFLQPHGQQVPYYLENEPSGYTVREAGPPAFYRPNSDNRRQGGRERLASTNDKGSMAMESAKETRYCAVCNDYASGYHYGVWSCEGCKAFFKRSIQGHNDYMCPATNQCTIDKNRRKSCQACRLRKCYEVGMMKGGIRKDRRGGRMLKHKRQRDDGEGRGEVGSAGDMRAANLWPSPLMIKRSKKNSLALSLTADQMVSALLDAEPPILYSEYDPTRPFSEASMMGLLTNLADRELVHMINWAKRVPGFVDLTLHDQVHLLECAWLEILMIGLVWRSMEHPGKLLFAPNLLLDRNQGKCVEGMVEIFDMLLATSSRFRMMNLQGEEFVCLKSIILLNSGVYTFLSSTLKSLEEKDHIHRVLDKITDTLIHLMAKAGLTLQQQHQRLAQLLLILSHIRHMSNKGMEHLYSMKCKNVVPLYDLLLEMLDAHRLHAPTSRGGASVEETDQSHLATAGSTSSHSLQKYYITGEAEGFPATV
Source text: (§3) R-SAT® (Receptor Selection and Amplification Technology) is a cell-based functional assay that allows one to monitor receptor-dependent proliferative responses and has been described elsewhere. […] This process is achieved by partial cellular transformation via loss of contact inhibition and growth factor dependency. Monitoring is achieved by transfecting the cells with a β-galactosidase reporter gene vector whose expression is under a constitutively active promoter. Briefly, NIH-3T3 fibroblasts were plated overnight in 96-wells plates in DMEM 10% calf serum (Hyclone) and grown to 60-70% confluency prior to transfection. Transient transfections were performed using Polyfect (Qiagen) according to manufacturer's instructions. Typically a transfection mix would consist of the receptor and the β-galactosidase expression vectors. Sixteen hours post-transfection, cells were incubated with different doses of ligand in DMEM containing 30% Ultraculture (Hyclone) and 0.4% calf serum (Hyclone) to generate a dose response curve. […] Plates were read using a microplate reader at 420 nm. Data from R-SAT® assays were fit to the equation: r=A+B(x/(x+c)), where A=minimum response, B=maximum response minus minimum response, c=EC50, r=response, and x=concentration of ligand. Curves were generated using the curve fitting softwares Excel Fit and GraphPad Prism (San Diego, Calif.). Luciferase Reporter Gene Assay

[6] = target: T2, ERα; assay: Luciferase reporter gene assay (3*ERE) in HEK293 cells, ERα; format: cell-based; set-up: expressed in transfected cells; host or cells: transient transfection; conditions: 48 hours
Description: as §2

[7] = target: T1, ERβ; assay: R-SAT functional assay, ERβ; format: cell-based; set-up: expressed in transfected cells; host or cells: transient transfection; conditions: NIH3T3; NIH-3T3 cells; read-out: R-SAT Erβ % Eff
Source text: as §3

[8] = tested on: nigrostriatal dopamine neurons; assay: Tyrosine hydroxylase immunofluorescence in SN and STR after 6OHDA lesion; format: in vivo, Male rats; conditions: 6OHDA rats, once daily 7 days sc; 10 mg/kg (estradiol 100 μg/kg)
Description: as §1
Comparative compound 131 and Compound 8 were compared with estradiol for their ability to protect nigrostriatal dopamine neurons as measured by tyrosine hydroxylase (TH) immunohistochemistry in the SN and striatum (STR).

[9] = target: T1, ERβ; assay: Competitive 3H-estradiol binding assay, ERβ; set-up: expressed in transfected cells; host or cells: HEK293 cells, transient transfection
Description: (§4) Cells were then harvested by scraping in ice-cold PBS and subsequently lysed using a cold buffer containing 10 mM Tris pH 7.4, 1 mM EDTA, 1 mM DTT before being subjected to polytron twice for 10 seconds. Cytosolic extracts were isolated by centrifugation at 15000 g for 30 minutes at 4° C. Competitive binding of the test compounds or the estradiol control was performed on 20 μL extract by overnight incubation at 4° C. in a total volume of 100 μL containing 1 nM ^3H-estradiol (Perkin Elmer, Boston, Mass.). The bound fraction was separated from the unbound one by the addition of 100 μL of Dextran coated charcoal, incubated for 10 minutes and subsequent centrifugation at 1000 rpm for 10 minutes. Samples (100 μL per sample) were then analyzed by liquid scintillation. Data was then analyzed using the curve fitting software GraphPad Prism.

[10] = target: T2, ERα; assay: Competitive 3H-estradiol binding assay, ERα; conditions: 1 nM 3H-estradiol, HEK293T cytosolic extract; read-out: Binding ERα pKi (converted)
Description: as §4, with “HEK293T cells were transiently transfected for 48 hours with expression vectors encoding ERα or ERβ, before being serum starved for 4-6 hours. Cells” for “Cells”

Oc1ccc(C2(c3ccccc3)CCCCC2)cc1 [Compound 131]
motor performance (spontaneous locomotor activity, rotorod, challenging beam) [1]: prevented the impairment | novel object recognition (cognition) [1]: showed improved memory | prepulse inhibition (sensorimotor gating) [1]: prevented the 6OHDA-induced deficit in PPI | EC50 [2]: 31.6 nM | EC50 [3]: 20 nM | Emax ([3]; HEK293 cells, 48 hours, read-out: Luciferase Erβ % Eff): 80% | Microsomal bioavailability (predicted from microsomes) [4]: 0% | R-SAT Erα % Eff [5]: 42% | Luciferase Erα % Eff [6]: 29% | EC50 ([6]; na = not active, read-out: Luciferase Erα pEC50 (converted)): 15800 nM | Emax [7]: 71% | percent immunopositive and mean pixel intensity of TH immunofluorescence in the STR [8]: increase in percentage of the image that was immunopositive and increased mean pixel intensity | percent immunopositive, mean cell size and mean pixel intensity of TH immunofluorescence in the SN [8]: improved percent immunopositive, mean cell size and mean pixel intensity | tyrosine hydroxylase positive cell number in the SN [8]: prevented the reduction in cell number | Ki [9]: 50.1 nM | Ki [10]: 1000 nM
